Reference: US11083735B2, “Methods for treating sleep disorders, sleep disturbances, and related symptoms using aminosterol compositions” (Enterin, Inc., priority 2017, dated 2021)

Assays:
[1] = system: patients with PD and constipation; experiment: Phase 2 trial Stage 2 (daily dosing): bowel function, stool related indices; type: in vivo, human; details: for response rate: Stage 2 daily dosing
Excerpt: (2) Rome-IV Criteria for Constipation (7 criteria, with constipation diagnosis requiring two or more of the following: (i) straining during at least 25% of defecations, (ii) lumpy or hard stools in at least 25% of defecations, (iii) sensation of incomplete evacuation for at least 25% of defecations, (iv) sensation of anorectal obstruction/blockage for at least 25% of defecations; (v) manual maneuvers to facilitate at least 25% of defecations; (vi) fewer than 3 defecations per week; and (vii) loose stools are rarely present without the use of laxatives;
(3) Constipation—Ease of Evacuation Scale (from 1-7, with 7=incontinent, 4=normal, and 1=manual disimpaction);
(4) Bristol Stool Chart, which is a patient-friendly means of categorizing stool characteristics (assessment of stool consistency is a validated surrogate of intestinal motility) and Stool Diary;
(14) Patient Assessment of Constipation Symptoms (PAC-SYM);
(15) Patient Assessment of Constipation Quality of Life (PAC-QOL);
In Stage 2, 34 patients were evaluated.
The primary efficacy outcome variable was whether or not a subject was a “success” or “failure”. This is an endpoint based on subject diary entries for the “fixed dose” period prior to the endpoint assessment defined as average complete stool frequency increase by 1 or more over baseline, or 3 or more complete spontaneous stools/week. The subject was deemed a “success” if s/he met one or more of the criteria listed above, otherwise the subject was deemed a “failure”. The primary analysis was based on all subjects with a baseline assessment and an assessment at the end of the “fixed-dose” period and was a comparison of the proportion of successes with 0.10 (the null hypothesis corresponding to no treatment effect).
The proportion of subjects for whom the drug was a success was estimated with a binomial point estimate and corresponding 95% confidence interval. A secondary analysis compared the proportions of subjects who are deemed a success at the end of the randomized fixed-dose period between those randomized to the squalamine (ENT-01) arm and those randomized to the placebo arm. A Fisher's exact test was used to compare the proportions of subjects who were deemed a success at the end of randomization period between the two randomized arms.

patients with PD = experiment: Phase 2 trial Stage 2: circadian rhythm of wrist skin temperature (I-Button); type: in vivo, human
Method: FIGS. 20A-F show the effect of squalamine (ENT-01) on circadian rhythm. The figures depict the results of circadian non-parametric analysis of wrist skin temperature rhythm throughout each condition (baseline, treatment with highest dose of squalamine (ENT-01) and washout). The following parameters were measured: […] (FIG. 20A), inter-daily stability (IS) (FIG. 20B), relative amplitude (RA) (FIG. 20C), circadian function index (FIG. 20D), M5V (FIG. 20E), which refers to the five consecutive hours with the highest temperature or high somnolence, and L10V (FIG. 20F), which indicates the mean of the ten consecutive hours with lowest temperature or high activation. […] Student's paired t-test, *p<0.05, **p<01, ***p<0.001.Values expressed as mean±SEM (n=12 in each condition).
(6) I-Button Temperature Assessment. […] From the collected data, the mesor, amplitude, acrophase (time of peak temperature), Rayleight test (an index of interdaily stability), mean waveforms are calculated.);
Circadian rhythm of skin temperature was evaluable in 12 patients (i.e., those who had recordings that extended from baseline through washout). Circadian system functionality was evaluated by continuously monitoring wrist skin temperature using a temperature sensor (Thermochron iButton DS1921H; Maxim, Dallas, Tex.) (Sarabia et al. 2008). […]

## CC(C)[C@@H](CC[C@@H](C)[C@H]1CC[C@H]2[C@@H]3[C@H](O)C[C@H]4C[C@@H](NCCCNCCCCN)CC[C@]4(C)[C@H]3CC[C@]12C)OS(=O)(=O)O (single isomer, unassigned; ent-01) [ENT-01]
[1]; Stage 2
  Median efficacious dose: 100 mg
[1]; Stage 2, Table 12, baseline 1.2 (0.90)
  CSBM, Fixed dose (mean, SD): 3.8
[1]; Stage 2, Table 12, baseline 1.3 (0.45)
  PAQ-SYM, Fixed dose (Mean, SD): 1.1
[1]; Stage 2, Table 12, baseline 1.4 (0.49)
  PAQ-QOL, Fixed dose (Mean, SD): 1.2
[1]; Stage 2, Table 12, baseline 1.8 (1.92)
  Rescue meds, Fixed dose (Mean, SD): 0.3
[1]; Stage 2, Table 12, baseline 2.6 (1.45)
  SBM, Fixed dose (mean, SD): 4.5
[1]; Stage 2, Table 12, baseline 2.7 (1.20)
  Consistency, Fixed dose (mean, SD): 4.1
[1]; Stage 2, Table 12, baseline 3.2 (0.73)
  Ease, Fixed dose (Mean, SD): 3.7
[1]; Stage 2, dosed patients n = 34, baseline 1.3 (0.45)
  PAC-SYM, Fixed dose (mean, SD): 1.1 (0.49)
[1]; Stage 2, dosed patients n = 34, baseline 1.4 (0.49)
  PAC-QOL total, Fixed dose (mean, SD): 1.2 (0.59)
[1]; Stage 2, dosed patients n = 34, weekly average, baseline 1.2 (0.90)
  CSBM, Fixed dose (mean, SD): 3.8 (2.40)
[1]; Stage 2, dosed patients n = 34, weekly average, baseline 1.8 (1.92)
  Suppository use, Fixed dose (mean, SD): 0.3 (0.67)
[1]; Stage 2, dosed patients n = 34, weekly average, baseline 2.6 (1.45)
  SBM, Fixed dose (mean, SD): 4.5 (2.21)
[1]; Stage 2, n = 34, Bristol stool scale 1-7, 1 = separate hard lumps, 7 = liquid consistency, baseline 2.7 (1.20)
  Consistency, Fixed dose (mean, SD): 4.1 (2.13)
[1]; Stage 2, n = 34, Ease of evacuation scale, 1-manual disimpaction, 7 = incontinent, baseline 3.2 (0.73)
  Ease of passage, Fixed dose (mean, SD): 3.7 (1.19)
[1]; Stage 2, wash-out period, baseline 1.2 (0.90)
  CSBM, Wash-out (Mean, SD): 1.8 (1.19)
[1]; Stage 2, wash-out period, baseline 1.3 (0.45)
  PAQ-SYM, Wash-out (Mean, SD): 1.1 (0.60)
[1]; Stage 2, wash-out period, baseline 1.4 (0.49)
  PAQ-QOL, Wash-out (Mean, SD): 1.2 (0.63)
[1]; Stage 2, wash-out period, baseline 1.8 (1.92)
  Rescue meds, Wash-out (Mean, SD): 1.0 (1.40)
[1]; Stage 2, wash-out period, baseline 2.6 (1.45)
  SBM, Wash-out (Mean, SD): 3.2 (1.80)
[1]; Stage 2, wash-out period, baseline 2.7 (1.20)
  Consistency, Wash-out (Mean, SD): 2.8 (1.39)
[1]; Stage 2, wash-out period, baseline 3.2 (0.73)
  Ease, Wash-out (Mean, SD): 3.3 (0.81)
[1]; 75 mg
  response rate: 26%
[1]; 250 mg
  response rate: 85.3%
[1]; at fixed dose, baseline 1.2
  Average CSBM/week: 3.8
[1]; at fixed dose, baseline 1.8/week
  Use of rescue medication: 0.3 /week
[1]; at fixed dose, baseline 2.6
  SBM: 4.5
[1]; beyond the treatment period (wash-out)
  CSBM frequency: remained significantly above baseline value
[1]; during treatment
  Subjective indices of wellbeing (PAC-QOL): improved
  constipation symptoms (PAC-SYM): improved
[1]; patients later randomized to Placebo (n = 9), Fixed dose period on drug, Baseline 1.6
  CSBM/week: 3.3
[1]; patients with baseline constipation of <1 CSBM/week
  dose for a bowel response, mean: 192 mg
[1]; patients with ≥1 CSBM/week at baseline
  dose for a bowel response, mean: 120 mg
[1]; randomized cohort, Treatment (n = 6), Fixed dose, Baseline 0.8
  CSBM/week: 3.2
[1]; randomized cohort, Treatment (n = 6), Randomized period
  CSBM/week: 2.4
[1]; randomized cohort, Treatment (n = 6), Washout
  CSBM/week: 0.9
[1]; treatment, from 2.7
  Consistency based on the Bristol stool scale, mean: 4.1
[1]; treatment, from 3.2
  ease of passage: 3.7
[1]; within 75 mg to 250 mg
  patients responding: 85%
Patients with PD; fixed dose vs baseline, 12 patients
  markers of healthy circadian function (IS, RA, CFI, IV): improved all markers of healthy circadian function
Patients with PD; wash-out period
  circadian parameters (IS, CFI): improvement persisted
